Laboratory results as given in patent publication US5527781A, “4-O-(aminoglycosyl)- or 4,6-di-O-(aminoglycosyl)-2,5-dideoxy-5,5-difluorostreptamine derivatives” (Zaidan Hojin Biseibutsu Kagaku Kenkyu Kai, priority 1990, dated 1996).
Converted amounts (≈) assume the structure as drawn.

What was measured:
[1] = test system: Providencia sp. Pv 16; test: MIC, standard serial dilution method; format: cell-based; conditions: SP.PV16, resistance mechanism AAC(2'), Mueller-Hinton agar, 37° C
[2] = test system: Klebsiella pneumoniae 22#3038; test: MIC, standard serial dilution method; format: cell-based; conditions: resistance mechanism APH(3')-II, ANT(2"), Mueller-Hinton agar, 37° C
[3] = in vivo; conditions: mouse, iv
Excerpt: Further, in order to estimate acute toxicity of the compound of the general formula (I) according to this invention, some examples of the compounds of this invention were independently dissolved in water to prepare aqueous solutions (as adjusted to pH 7 by addition of hydrochloric acid). […] The tested compounds of this invention are expressed by the same abbreviations as in Table 1. […] The comparative compounds as tested are also expressed by the same abbreviations as in Table 1.

[4] = test system: Bacillus subtilis PCI219; test: MIC, standard serial dilution method; format: cell-based; conditions: Mueller-Hinton agar, 37° C
[5] = test system: Serratia marcescens; test: MIC, standard serial dilution method; format: cell-based; conditions: Mueller-Hinton agar, 37° C
[6] = test system: Staphylococcus aureus 209P; test: MIC, standard serial dilution method; format: cell-based; conditions: Mueller-Hinton agar, 37° C
[7] = test system: Corynebacterium bovis 1810; test: MIC, standard serial dilution method; format: cell-based; conditions: Mueller-Hinton agar, 37° C
[8] = test system: Escherichia coli K-12 LA 290 R55; test: microbe, parasite or virus in culture; format: cell-based; conditions: K12LA290R55; Escherichia coli K-12 LA 290 R55; resistance mechanism ANT(2"); Mueller-Hinton agar, 37° C
[9] = test system: Escherichia coli JR225; test: microbe, parasite or virus in culture; format: cell-based; conditions: resistance mechanism AAC(3), Mueller-Hinton agar, 37° C
[10] = test system: Escherichia coli K-12 ML 1629; test: microbe, parasite or virus in culture; format: cell-based; conditions: K12ML1629; Escherichia coli K-12 ML 1629; resistance mechanism APH(3')-I; Mueller-Hinton agar, 37° C; read-out: MIC
[11] = test system: Pseudomonas aeruginosa GN 315; test: MIC, standard serial dilution method; format: cell-based; conditions: GN315; Pseudomonas aeruginosa GN 315; resistance mechanism AAC(6'); Mueller-Hinton agar, 37° C; read-out: MIC
[12] = test system: Mycobacterium 607; test: MIC, standard serial dilution method; format: cell-based; conditions: Mueller-Hinton agar, 37° C
[13] = test system: Staphylococcus aureus Ap01; test: MIC, standard serial dilution method; format: cell-based; conditions: resistance mechanism ANT(4'), Mueller-Hinton agar, 37° C
[14] = test system: Escherichia coli JR66/W677; test: microbe, parasite or virus in culture; format: cell-based; conditions: resistance mechanism APH(3')-II, ANT(2"), Mueller-Hinton agar, 37° C
[15] = test system: Escherichia coli K-12 R5; test: microbe, parasite or virus in culture; format: cell-based; conditions: K12R5
[16] = test system: Proteus rettgeri GN 311; test: MIC, standard serial dilution method; format: cell-based; conditions: Providencia rettgeri, GN311; Proteus rettgeri GN 311; Mueller-Hinton agar, 37° C; read-out: MIC
[17] = test system: Escherichia coli K-12; test: MIC, standard serial dilution method; format: cell-based; conditions: K12; Escherichia coli K-12; Mueller-Hinton agar, 37° C; read-out: MIC
[18] = test system: Pseudomonas aeruginosa A3; test: MIC, standard serial dilution method; format: cell-based; conditions: Mueller-Hinton agar, 37° C
[19] = Escherichia coli K-12 R5, resistance mechanism AAC(6'), Mueller-Hinton agar, 37° C

Row | SMILES | MIC [1] [µg/mL] | MIC [2] [µg/mL] | LD50 ([3]; pH 7) [mg/kg] | MIC [4] [µg/mL] | MIC [5] [µg/mL] | MIC [6] [µg/mL] | MIC [7] [µg/mL] | MIC [8] [µg/mL] | MIC [9] [µg/mL] | MIC [10] [µg/mL] | MIC [11] [µg/mL] | MIC [12] [µg/mL] | MIC [13] [µg/mL] | MIC [14] [µg/mL] | MIC ([15]; Escherichia coli) [µg/mL] | MIC [16] [µg/mL] | MIC [17] [µg/mL] | MIC [18] [µg/mL] | MIC [15, 19] [µg/mL] | LD50 [3] [mg/kg]
1 | NC[C@H]1O[C@H](O[C@H]2[C@H](F)[C@@H](O[C@H]3O[C@H](CO)[C@@H](O)[C@H](N)[C@H]3O)[C@H](N)C[C@@H]2N)[C@H](N)C[C@@H]1O [Compound 5F-TOB, 5,3'-dideoxy-5-fluorokanamycin B, reference compound] | 3.12 (≈ 6.65 µM) | 3.12 (≈ 6.65 µM) | ~180 | < 0.2 | – | – | – | – | – | – | – | – | – | – | – | – | – | – | – | –
2 | CN[C@@H]1[C@@H](O)[C@@H](O[C@H]2[C@H](NC(=O)[C@@H](O)CCN)C[C@H](N)[C@@H](O[C@H]3O[C@H]([C@@H](C)NC)CC[C@H]3N)C2(F)F)OC[C@]1(C)O [5FF-Genta-C1-AHB, 1-N-[(S)-4-amino-2-hydroxybutyryl]-5-deoxy-5,5-difluorogentamicin C1] | 6.25 (≈ 10.4 µM) | 1.56 (≈ 2.61 µM) | – | 1.56 (≈ 2.61 µM) | 3.12 (≈ 5.21 µM) | 1.56 (≈ 2.61 µM) | 0.78 (≈ 1.3 µM) | 0.39 (≈ 0.651 µM) | < 0.2 | 1.56 (≈ 2.61 µM) | 100 (≈ 167 µM) | 3.12 (≈ 5.21 µM) | 25 (≈ 41.8 µM) | 3.12 (≈ 5.21 µM) | 0.78 (≈ 1.3 µM) | 1.56 (≈ 2.61 µM) | < 0.2 | 6.25 (≈ 10.4 µM) | – | –
3 | NCC[C@H](O)C(=O)N[C@@H]1C[C@H](N)[C@@H](O[C@H]2O[C@H](CN)[C@@H](O)[C@H](O)[C@H]2O)[C@H](O)[C@H]1O[C@H]1O[C@H](CO)[C@@H](O)[C@H](N)[C@H]1O [Amikacin, amikacin, reference compound] | 1.56 (≈ 2.66 µM) | 3.12 (≈ 5.33 µM) | > 300 | 0.39 (≈ 0.666 µM) | 3.12 (≈ 5.33 µM) | – | 1.56 (≈ 2.66 µM) | 1.56 (≈ 2.66 µM) | – | 1.56 (≈ 2.66 µM) | 50 (≈ 85.4 µM) | – | > 100 | – | – | 1.56 (≈ 2.66 µM) | – | – | 100 (≈ 171 µM) | –
4 | NC[C@H]1O[C@H](O[C@H]2[C@H](F)[C@@H](O[C@H]3O[C@H](CO)[C@@H](O)[C@H](N)[C@H]3O)[C@H](N)C[C@@H]2N)[C@H](N)[C@@H](O)[C@@H]1O [5-deoxy-5-fluorokanamycin B, reference compound] | – | – | – | – | – | – | – | – | – | – | – | – | – | – | – | – | – | – | – | ~135
5 | NC[C@H]1O[C@H](O[C@@H]2[C@@H](N)C[C@@H](N)[C@H](O[C@H]3O[C@H](CO)[C@@H](O)[C@H](N)[C@H]3O)C2(F)F)[C@H](N)[C@@H](O)[C@@H]1O [Compound 5FF-KMB, 5-deoxy-5,5-difluorokanamycin B] | 12.5 (≈ 24.8 µM) | – | – | 0.39 (≈ 0.775 µM) | 6.25 (≈ 12.4 µM) | 0.78 (≈ 1.55 µM) | 1.56 (≈ 3.1 µM) | 3.12 (≈ 6.2 µM) | 3.12 (≈ 6.2 µM) | > 100 | > 100 | 1.56 (≈ 3.1 µM) | 50 (≈ 99.3 µM) | – | – | 0.39 (≈ 0.775 µM) | 0.39 (≈ 0.775 µM) | 3.12 (≈ 6.2 µM) | 100 (≈ 199 µM) | –
6 | NC[C@@H]1CC[C@@H](N)[C@@H](O[C@H]2[C@H](F)[C@@H](O[C@H]3O[C@H](CO)[C@@H](O)[C@H](N)[C@H]3O)[C@H](N)C[C@@H]2N)O1 [Compound 5F-DKB, 5,3',4'-trideoxy-5-fluorokanamycin B, reference compound] | – | 6.25 (≈ 13.8 µM) | ~135 | – | – | – | 6.25 (≈ 13.8 µM) | – | – | 3.12 (≈ 6.88 µM) | – | 6.25 (≈ 13.8 µM) | 3.12 (≈ 6.88 µM) | – | – | – | 3.12 (≈ 6.88 µM) | – | – | –
7 | NCC[C@H](O)C(=O)N[C@@H]1C[C@H](N)[C@@H](O[C@H]2O[C@H](CN)[C@@H](O)C[C@H]2N)[C@H](F)[C@H]1O[C@H]1O[C@H](CO)[C@@H](O)[C@H](N)[C@H]1O [Compound 5F-TOB-AHB, 1-N-[4-amino-2-(S)-hydroxybutyryl]-5,3'-dideoxy-5-fluorokanamycinB, reference compound] | 0.39 (≈ 0.683 µM) | 0.78 (≈ 1.37 µM) | – | – | 3.12 (≈ 5.47 µM) | – | – | 0.39 (≈ 0.683 µM) | < 0.2 | 0.39 (≈ 0.683 µM) | 1.56 (≈ 2.73 µM) | 0.39 (≈ 0.683 µM) | 3.12 (≈ 5.47 µM) | – | – | – | < 0.2 | < 0.2 | – | –
8 | NCC[C@H](O)C(=O)N[C@@H]1C[C@H](N)[C@@H](O[C@H]2O[C@H](CN)CC[C@H]2N)[C@H](O)[C@H]1O[C@H]1O[C@H](CO)[C@@H](O)[C@H](N)[C@H]1O [HBK, 1-N-[4-amino-(S)-2-hydroxybutyryl]-3',4'-dideoxykanamycin B, reference compound] | – | – | 70 | – | – | – | – | – | – | – | – | – | – | – | – | – | – | – | – | –
